In one series the target is T1, hCA I (Homo sapiens, UniProt P00915).
T1 construct: made in house
The experiment in a line: Stopped-flow CA-catalyzed CO2 hydration inhibition assay. It counts as biochemical. To be noted: stopped flow technique, mean from three different assays, recombinant enzyme, pH 7.4. As for the experimental part: (§1) An Applied Photophysics stopped-flow instrument was used for assaying the CA catalyzed CO2 hydration activity. Phenol red (at a concentration of 0.2 mM) was used as an indicator, working at the absorbance maximum of 557 nm, with 20 mM Hepes (pH 7.4) as a buffer, and 20 mM Na2SO4 (for maintaining constant ionic strength), following the initial rates of the CA-catalyzed CO2 hydration reaction for a period of 10–100 s. The CO2 concentrations ranged from 1.7 to 17 mM for the determination of the kinetic parameters and inhibition constants. […] However, the background activity from the uncatalyzed reaction is always subtracted when IC50 values are obtained by using the data analysis software for the stopped flow instrument. […] For each inhibitor, at least six traces of the initial 5–10% of the reaction were used for determining the initial velocity. The uncatalyzed rates were determined in the same manner and subtracted from the total observed rates. Stock solutions of the inhibitor (0.1 mM) were prepared in distilled, deionized water, and dilutions up to 0.01 nM were done thereafter with the assay buffer. Inhibitor and enzyme solutions were preincubated together for 15 min at room temperature prior to the assay, allowing the formation of the E–I complex. The inhibition constants were obtained by non-linear least-squares methods using PRISM 3 and the Cheng-Prusoff equation as reported earlier, which represent the mean from at least three different determinations. All CA isoforms were recombinant proteins obtained in house, as reported earlier.

For a further series, the target named is T2, hCA II (Homo sapiens, UniProt P00918).
T2 construct: made in house
The series is described as above. In kind it is biochemical. To be noted: for Ki: stopped flow technique, mean from three different assays, recombinant enzyme, pH 7.4. As for the experimental part: as §1

For another series, the target named is T3, hCA IX (Homo sapiens, UniProt Q16790).
T3 construct: made in house
The series is described as above. It counts as biochemical. To be noted: stopped flow technique, mean from three different assays, recombinant enzyme, pH 7.4. The method, then:
as §1

Another series has as its target T4, hCA XII (Homo sapiens, UniProt O43570).
T4 construct: made in house
The description is as above. In kind it is biochemical. To be noted: stopped flow technique, mean from three different assays, recombinant enzyme, pH 7.4. The method, then: as §1

Molecules are shown by their SMILES.

T1 sequence (P00915 whole entry): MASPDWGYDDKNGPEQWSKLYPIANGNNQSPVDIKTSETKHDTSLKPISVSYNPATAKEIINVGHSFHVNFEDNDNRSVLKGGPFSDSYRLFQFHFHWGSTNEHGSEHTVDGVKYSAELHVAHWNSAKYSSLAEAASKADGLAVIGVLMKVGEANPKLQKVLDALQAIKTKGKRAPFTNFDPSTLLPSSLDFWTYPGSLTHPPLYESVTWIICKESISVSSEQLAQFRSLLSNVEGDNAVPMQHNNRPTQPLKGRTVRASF
T4 sequence (O43570 25-354): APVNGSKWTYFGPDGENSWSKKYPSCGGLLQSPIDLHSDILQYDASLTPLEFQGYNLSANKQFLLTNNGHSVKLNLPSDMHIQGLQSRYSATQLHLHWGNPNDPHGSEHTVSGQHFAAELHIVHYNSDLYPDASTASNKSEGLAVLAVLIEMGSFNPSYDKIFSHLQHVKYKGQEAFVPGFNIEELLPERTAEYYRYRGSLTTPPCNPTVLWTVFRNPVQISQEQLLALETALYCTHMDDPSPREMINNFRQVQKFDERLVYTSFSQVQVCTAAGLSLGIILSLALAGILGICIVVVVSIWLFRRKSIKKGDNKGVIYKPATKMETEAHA

For the compound `Cc1ccc2oc(C(=O)Nc3ccc(S(N)(=O)=O)cc3)cc(=O)c2c1` [5b, 6-Methyl-4-oxo-N-(4-sulfamoylphenyl)-4H-chromene-2-carboxamide], the melting point (usually the temperature, or range, at which the solid turns liquid) lay within 307 to 308 °C. The inhibitory constant (Ki) (usually the dissociation constant of the complex between target and ligand, obtained from inhibition or displacement) on hCA I was determined as 5310 ± 272 nM. The Ki on hCA II turned out to be 95.9 ± 8 nM. Besides, the Ki on hCA IX is 77 ± 6.5 nM. Further, the Ki on hCA XII was 64.8 ± 6.1 nM.
On the same counts, the results for `Cc1cc(C)c2c(=O)cc(C(=O)Nc3ccc(S(N)(=O)=O)cc3)oc2c1` [5g, 5,7-Dimethyl-4-oxo-N-(4-sulfamoylphenyl)-4H-chromene-2-carboxamide] are 304 to 306 °C, 682 ± 40.6 nM, 61.4 ± 4.4 nM, 54.7 ± 5 nM and 46.4 ± 4.4 nM.
The matching figures for `NS(=O)(=O)c1ccc(NC(=O)c2cc(=O)c3cc(Cl)ccc3o2)cc1` [5i, 6-Chloro-4-oxo-N-(4-sulfamoylphenyl)-4H-chromene-2-carboxamide]: 296 to 298 °C, 2700 ± 265 nM, 66.2 ± 5.8 nM, 51 ± 4.8 nM and 425 ± 41 nM.
The matching figures for `Cc1ccc2c(=O)cc(C(=O)Nc3ccc(S(N)(=O)=O)cc3)oc2c1` [5c, 7-Methyl-4-oxo-N-(4-sulfamoylphenyl)-4H-chromene-2-carboxamide]: 309 to 311 °C, 3560 ± 228 nM, 39.5 ± 3.2 nM, 63.4 ± 6.3 nM and 50.8 ± 4.3 nM.
Turning to `Cc1ccc2c(=O)cc(C(=O)NCCc3ccc(S(N)(=O)=O)cc3)oc2c1` [6f, 7-Methyl-4-oxo-N-(4-sulfamoylphenethyl)-4H-chromene-2-carboxamide], the melting point was in the range of 253 to 255 °C. In addition, at hCA I, the Ki was determined as 334 ± 17.5 nM. Further, at hCA II (ratio of Ki values), the “selectivity index (SI) hCA II compared to hCA I” value came out at 44.47 and the “selectivity index (SI) hCA II compared to hCA XII” value amounted to 44.97. For the same compound, the inhibitory constant (Ki) on hCA II came to 7.5 ± 0.5 nM. Also, on hCA IX, the Ki amounted to 64.8 ± 3.4 nM. Also, the Ki on hCA XII is 337 ± 27.4 nM.
The compound `Cc1ccc2c(=O)cc(C(=O)NCCc3ccc(S(N)(=O)=O)cc3)oc2c1C` [6i, 7,8-Dimethyl-4-oxo-N-(4-sulfamoylphenethyl)-4H-chromene-2-carboxamide] yielded a melting point of 280 to 282 °C. Moreover, the inhibition constant Ki at hCA I came to 214 ± 15.9 nM. In addition, the inhibition constant Ki on hCA II turned out to be 39.2 ± 3.7 nM. For the same compound, the Ki at hCA IX stood at 84.5 ± 4.3 nM. Further, on hCA XII, the Ki was determined as 132 ± 11 nM.
On the same counts, the results for `NS(=O)(=O)c1ccc(CCNC(=O)c2cc(=O)c3cc(Cl)ccc3o2)cc1` [6k, 6-Chloro-4-oxo-N-(4-sulfamoylphenethyl)-4H-chromene-2-carboxamide] are 285 to 287 °C, 927 ± 68.9 nM, 91.6 ± 7 nM, 1920 ± 146 nM and 41.4 ± 3.4 nM.
The matching figures for `Cc1ccc2oc(C(=O)NCc3ccc(S(N)(=O)=O)cc3)cc(=O)c2c1` [6b, 6-Methyl-4-oxo-N-(4-sulfamoylbenzyl)-4H-chromene-2-carboxamide]: 293 to 295 °C, 612 ± 49.5 nM, 81.7 ± 4.2 nM, 2040 ± 189 nM and 320 ± 23.2 nM.
Compound `NS(=O)(=O)c1ccc(CCNC(=O)c2cc(=O)c3ccccc3o2)cc1` [6d, 4-Oxo-N-(4-sulfamoylphenethyl)-4H-chromene-2-carboxamide] displayed a melting point of 248 to 250 °C. Moreover, the Ki on hCA I turned out to be 322 ± 27.9 nM. The Ki at hCA II worked out at 16.6 ± 1.2 nM. Moreover, the Ki on hCA IX amounted to 81 ± 7.7 nM. Besides, on hCA XII, the inhibition constant (Ki) turned out to be 212 ± 13.7 nM.
`NS(=O)(=O)c1ccc(CNC(=O)c2cc(=O)c3cc(Cl)ccc3o2)cc1` [6c, 6-Chloro-4-oxo-N-(4-sulfamoylbenzyl)-4H-chromene-2-carboxamide] registered a melting point of 299 to 301 °C. On hCA I, the Ki was determined as 2650 ± 227 nM. Further, the Ki at hCA II came to 679 ± 45 nM. Moreover, the inhibition constant (Ki) at hCA IX turned out to be 3280 ± 302 nM. Further, at hCA XII, the Ki came to 59.4 ± 5 nM.
As for `CCc1ccc2oc(C(=O)Nc3ccc(S(N)(=O)=O)cc3)cc(=O)c2c1` [5d, 6-Ethyl-4-oxo-N-(4-sulfamoylphenyl)-4H-chromene-2-carboxamide], the melting point lay in the range of 297 to 299 °C.
`Cc1cc(C)c2oc(C(=O)NCCc3ccc(S(N)(=O)=O)cc3)cc(=O)c2c1` [6j, 6,8-Dimethyl-4-oxo-N-(4-sulfamoylphenethyl)-4H-chromene-2-carboxamide]: the melting point was 283 to 285 °C. Moreover, at hCA I, the inhibition constant Ki stood at 4410 ± 347 nM. Besides, the Ki at hCA II turned out to be 143 ± 12.8 nM. The Ki on hCA IX was 91.1 ± 8.9 nM. Also, on hCA XII, the inhibition constant Ki turned out to be 31.4 ± 2.6 nM.
In turn, `CCc1ccc2oc(C(=O)NCCc3ccc(S(N)(=O)=O)cc3)cc(=O)c2c1` [6g, 6-Ethyl-4-oxo-N-(4-sulfamoylphenethyl)-4H-chromene-2-carboxamide] displayed a melting point of 257 to 259 °C. In addition, at hCA I, the Ki came to 971 ± 82.4 nM. Also, the Ki at hCA II was 280 ± 15.5 nM. Further, on hCA IX, the Ki came out at 183 ± 16.1 nM. Also, the Ki on hCA XII turned out to be 148 ± 8.1 nM.
The matching figures for `Cc1ccc2oc(C(=O)NCCc3ccc(S(N)(=O)=O)cc3)cc(=O)c2c1` [6e, 6-Methyl-4-oxo-N-(4-sulfamoylphenethyl)-4H-chromene-2-carboxamide]: 257 to 259 °C, 247 ± 24.3 nM, 36.4 ± 2.1 nM, 72.7 ± 4.3 nM and 439 ± 32.2 nM.
On to `NS(=O)(=O)c1ccc(NC(=O)c2cc(=O)c3ccccc3o2)cc1` [5a, 4-Oxo-N-(4-sulfamoylphenyl)-4H-chromene-2-carboxamide], for which the melting point was 296 to 298 °C. Further, at hCA I, the Ki came to 525 ± 44.4 nM. For the same compound, at hCA II, the Ki came out at 35.1 ± 3.3 nM. For the same compound, on hCA IX, the Ki is 16.6 ± 1.5 nM. Besides, at hCA XII, the inhibition constant Ki is 20.1 ± 1.7 nM.
The matching figures for `Cc1cc2oc(C(=O)Nc3ccc(S(N)(=O)=O)cc3)cc(=O)c2cc1Cl` [5j, 6-Chloro-7-methyl-4-oxo-N-(4-sulfamoylphenyl)-4H-chromene-2-carboxamide]: 305 to 307 °C, 580 ± 50.5 nM, 901 ± 75.4 nM, 516 ± 37.2 nM and 155 ± 10.1 nM.
On the same counts, the results for `Cc1cc2oc(C(=O)NCCc3ccc(S(N)(=O)=O)cc3)cc(=O)c2cc1C` [6h, 6,7-Dimethyl-4-oxo-N-(4-sulfamoylphenethyl)-4H-chromene-2-carboxamide] are 282 to 284 °C, 547 ± 39.2 nM, 51.2 ± 3.6 nM, 51.4 ± 4.5 nM and 22.6 ± 1.5 nM.
The matching figures for `NS(=O)(=O)c1ccc(CNC(=O)c2cc(=O)c3ccccc3o2)cc1` [6a, 4-Oxo-N-(4-sulfamoylbenzyl)-4H-chromene-2-carboxamide]: 284 to 286 °C, 628 ± 35.5 nM, 219 ± 11.8 nM, 855 ± 49.2 nM and 34 ± 2.2 nM.
In turn, `Cc1cc(C)c2oc(C(=O)Nc3ccc(S(N)(=O)=O)cc3)cc(=O)c2c1` [5h, 6,8-Dimethyl-4-oxo-N-(4-sulfamoylphenyl)-4H-chromene-2-carboxamide] showed a melting point of 309 to 311 °C. The Ki on hCA I was 505 ± 27 nM. Moreover, the Ki at hCA II is 46.6 ± 2.9 nM. Moreover, at hCA IX, the Ki turned out to be 22.5 ± 1.9 nM. Also, on hCA XII, the Ki came out at 26.8 ± 1.4 nM.
On the same counts, the results for `Cc1cc2oc(C(=O)Nc3ccc(S(N)(=O)=O)cc3)cc(=O)c2cc1C` [5e, 6,7-Dimethyl-4-oxo-N-(4-sulfamoylphenyl)-4H-chromene-2-carboxamide] are 310 to 312 °C, 2890 ± 161 nM, 311 ± 28.3 nM, 299 ± 18.4 nM and 619 ± 36.7 nM.
The matching figures for `Cc1ccc2c(=O)cc(C(=O)Nc3ccc(S(N)(=O)=O)cc3)oc2c1C` [5f, 7,8-Dimethyl-4-oxo-N-(4-sulfamoylphenyl)-4H-chromene-2-carboxamide]: 328 to 330 °C, 341 ± 29.6 nM, 9.3 ± 0.5 nM, 19.5 ± 1.6 nM and 76.3 ± 6 nM.
